From patent US20260033466A1, “METHOD AND ANIMAL MODEL FOR INDUCING BCC TUMORS” (FELDAN BIO INC., priority 2022, published 2026)

How the values were obtained:
BCC tumors = test: Anti-BCC treatment of induced BCC mice (tamoxifen/doxycycline and UV-B); format: in vivo, mouse; details: begun 37-43 weeks post-induction
[1] = tested on: GFP (indicative of Ptch1 and p53 shRNA expression); test: Immunofluorescence of GFP in skin of BCC mice after induction, no UV-B; format: in vivo, mouse; details: absence of UV, fluorescence microscopy of skin sections, FIG. 4
Procedure: Positive GFP fluorescence is indicative of Ptch1 and p53 shRNA expression. […] Positive GFP fluorescence is indicative of Ptch1 and p53 shRNA expression.
For histological staining by immunofluorescence, sections were incubated 5 minutes in room temperature PBS to remove the OCT compound and then drained as much as possible. Slides were then blocked in BSA 3% and stained with anti-GFP antibody (ab6556 Abcam) or anti-Ptch1 (ThermoFisher PA5-87508) or anti-CK14 (BioLegend™ #906004) O/N at 4° C. Sections were then washed thrice (5 minutes each) with PBST and incubated with fluorophore-conjugated antibodies. Following washes (3×5 minutes), 100 μL per slide of ProLong™ Glass NucBlue™ (Invitrogen™) were applied and a coverslip. Slides were incubated overnight in the dark prior to imaging. Slides were imaged within 1-4 days after mounting and left in the dark until that time.
Next, shRNA expression was assessed in the skin of mice, either untreated, or after induction with either tamoxifen alone, doxycycline alone, or tamoxifen/doxycycline in the absence of UV.

mouse Ptch1 = test: shRNA knockdown efficiency reporter assay (Yuan et al. 2014); format: cell-based; details: Ptch1 mRNA expression normalized to shRen713 (positive control); FIG. 2
Procedure: Knockdown efficiency was calculated by Ptch1 mRNA expression normalized to shRen713 ([…]).
Knockdown efficiency was calculated by Ptch1 mRNA expression normalized to shRen713 ([…]), a reporter shRNA targeting Renilla Luciferase 713.

CS(=O)(=O)c1ccc(C(=O)Nc2ccc(Cl)c(-c3ccccn3)c2)c(Cl)c1 [vismodegib]
tumor appearance (scabbing/crusting) (BCC tumors; oral daily via gastric gavage 5 mg/kg, after 18-25 days of treatment, FIG. 12): visible signs of scabbing/crusting of the tumors

CO[C@H]1C[C@@H]2CC[C@@H](C)[C@@](O)(O2)C(=O)C(=O)N2CCCC[C@H]2C(=O)O[C@H]([C@H](C)C[C@@H]2CC[C@@H](OCCO)[C@H](OC)C2)CC(=O)[C@H](C)/C=C(\C)[C@@H](O)[C@@H](OC)C(=O)[C@H](C)C[C@H](C)/C=C/C=C/C=C/1C [everolimus]
tumor appearance (scabbing/crusting) (BCC tumors; i.p. 3 mg/kg, after 7-12 days of treatment, FIG. 13): visible signs of scabbing/crusting of the tumors

CC/C(=C(\c1ccccc1)c1ccc(OCCN(C)C)cc1)c1ccccc1 [tamoxifen]
GFP expression in skin (shRNAs targeting Ptch1 and p53) [1]: no expression of GFP

B1: Ptch1.2559: shRNA targeting mouse Ptch1, nucleobases 2776-2796 of SEQ ID NO: 12; selected for the BCC model (nucleic acid)
guide: TCATGCCAAACAATTATAAAATAGTGAAGCCACAGATGTATTTTATAATTGTTTGGCATGA
knockdown efficiency (mouse Ptch1): 101.24%
